According to US20220380341A1, “INHIBITORS OF HIV-1 NEF FOR THE TREATMENT OF HIV DISEASE” (priority 2018, published 2022):
Several values for one entry are separate records, joined by “and”; a condition that tells them apart may be missing. Equal entries are not always repeated. Where two headings read alike, the source gives them in different places.

Tests used:
HIV-1 NefNL4-3 = HIV-1 NefNL4-3 (Human immunodeficiency virus type 1 group M subtype B, UniProt P03406, A33V/T15A/T51N/V11I); test: Surface plasmon resonance binding to recombinant full-length Nef (NL4-3); conditions: for T, minutes (residence time): 2-step induced fit, T = 1/koff2; for RU30/RUNef (extent of binding): response units at 30 μM relative to Nef immobilized on the SPR chip
HIV-1NL4-3 = test: HIV-1 infectivity assay in TZM-bl reporter cell line (LTR-luciferase, 48 h); type: cell-based; conditions: for inhibition at 1 µM: Human immunodeficiency virus 1, TZM-bl
Description: (§1) In particular, the tables show antiretroviral activity as percent inhibition of HIV-1 infectivity at 1 μM. In brief, this assay uses the TZM-bl reporter cell line, which carries a stable copy of the HIV-1 LTR coupled to luciferase. Cells are infected with HIV-1NL4-3 in the presence and absence of each compound, and luciferase activity is measured 48 h later. This assay measures early events in the HIV-1 life cycle, including viral entry, reverse transcription, nuclear entry and integration, and viral transcription. All assays include control cells infected with Nef-defective HIV-1, which replicates at 30-50% of wild-type in this system. Results are normalized to percent inhibition relative to DMSO-treated control cells infected with wild-type HIV-1 (0% inhibition) and DMSO-treated cells infected with Nef-defective HIV-1 (100% of the Nef-dependent effect)—see column 3. In addition, cell viability is measured in the TZM-bl cell line in the presence of each test compound and in the absence of HIV-1 infection, using the Cell Titer Blue cell viability assay (Promega; column 4).

TZM-bl cell line = type: cell-based
Description: as §1

[1] = Table 1, 1:1 Langmuir fit where the KD2 cell says '1 to 1 fitting', else 2-site fit, read-out: Nef NL4-3 Binding, SPR 1:1 or 2-site fitting KD1
[2] = Table 1, TZM-bl cells, 1 μM, 48 h, 100% = Nef-defective HIV-1
[3] = Table 1, uninfected TZM-bl cells, 1 μM, Cell Titer Blue
[4] = Table 1, 1:1 Langmuir fit where the KD2 cell says '1 to 1 fitting', else 2-site fit
[5] = KD, M, Table 4, SPR fit 2-step induced fit, KD = koff/kon × koff2/(koff2 + kon2)
[6] = Nef NL4-3 Binding, SPR 1:1 or 2-site fitting KD2, Table 1, 2-site fit, second component
[7] = Nef NL4-3 Binding, SPR 2-state fitting KD, Table 1, 2-step induced-fit model
[8] = 1.0 μM, TZM-bl reporter cell line, Table 4, read-out: % Infectivity Inhibition
[9] = 48 h, Table 1, TZM-bl cells, 1 μM, 48 h, 100% = Nef-defective HIV-1, read-out: HIV-1 Infectivity % Inhibition Norm. to Δ-Nef @ 1 μM
[10] = read-out: Nef NL4-3 Binding, SPR 1:1 or 2-site fitting KD2, Table 1, 2-site fit, second component

Compound | Kd (HIV-1 NefNL4-3; [1]) | HIV-1 Infectivity % Inhibition Norm. to Δ-Nef @ 1 μM (HIV-1NL4-3; [2]) | Percent Viability @ 1 μM (TZM-bl cells) (TZM-bl cell line; [3]) | Nef NL4-3 Binding, SPR 1:1 or 2-site fitting KD1 (HIV-1 NefNL4-3; [4]) | Kd (HIV-1 NefNL4-3) | Kd (HIV-1 NefNL4-3; [5]) | Kd (HIV-1 NefNL4-3; [6]) | Kd (HIV-1 NefNL4-3; [7]) | T, minutes (residence time) (HIV-1 NefNL4-3; Table 4) | RU30/RUNef (extent of binding) (HIV-1 NefNL4-3) | inhibition at 1 µM (HIV-1NL4-3; [8]) | inhibition at 1 µM (HIV-1NL4-3; [9]) | % Cell Viability (TZM-bl cell line; human, 1 μM) | Percent Viability @ 1 μM (TZM-bl cells) (TZM-bl cell line; human, 1 μM) | Kd (HIV-1 NefNL4-3; [10]) | Percent Viability @ 1 μM (TZM-bl cells) (TZM-bl cell line) | Kd (HIV-1 NefNL4-3; Table 4, SPR fit 2-step induced fit, KD = koff/kon × koff2/(koff2 + kon2)) | Kd (HIV-1 NefNL4-3; read-out: Nef NL4-3 Binding, SPR 1:1 or 2-site fitting KD1, Table 1, 1:1 Langmuir fit where the KD2 cell says '1 to 1 fitting', else 2-site fit) | Kd (HIV-1 NefNL4-3; read-out: Nef NL4-3 Binding, SPR 2-state fitting KD, Table 1, 2-step induced-fit model)
1-(1H-1,3-benzodiazol-2-yl)-4-[2-(4-fluorophenyl)ethyl]-3-(1-{[2-(1H-pyrrol-1-yl)phenyl]methyl}piperidin-4-yl)-1H-pyrazol-5-ol [Compound I-805] | 0.596 µM | 33.9% | 93.7% | – | – | – | – | – | – | – | – | – | – | – | – | – | – | – | –
2-{4-[1-(1H-1,3-benzodiazol-2-yl)-4-[2-(4-fluorophenyl)ethyl]-5-hydroxy-1H-pyrazol-3-yl]piperidine-1-carbonyl}benzene-1,3,5-triol [Compound I-729] | – | 57.2% | 102.4% | No Interaction | – | – | – | – | – | – | – | – | – | – | – | – | – | – | –
CC(C)(C)OC(=O)N1CCC[C@H]1c1nn(-c2nc3ccccc3[nH]2)c(O)c1CCc1ccc(F)cc1 (stereo in doubt) [Compound I-205, tert-butyl 2-[1-(1H-1,3-benzodiazol-2-yl)-4-[2-(4-fluorophenyl)ethyl]-5-hydroxy-1H-pyrazol-3-yl]pyrrolidine-1-carboxylate] | – | – | – | – | 1.09 µM | 0.208 µM | 1.1 µM | 0.208 µM | 9.98E + 01 minutes | 5.81E- 03 | 14.3% | 14.3% | 95.6% | 95.6% | – | – | – | – | –
Oc1c(CCc2ccc(F)cc2)c(-c2ccc(C(F)(F)F)cc2)nn1-c1nc2ccccc2[nH]1 [Compound I-106, 1-(1H-1,3-benzodiazol-2-yl)-4-[2-(4-fluorophenyl)ethyl]-3-[4-(trifluoromethyl)phenyl]-1H-pyrazol-5-ol] | – | – | – | – | 20.2 µM | – | 3.26 µM | – | – | – | – | 98.2% | – | 84.5% | – | – | – | – | –
Oc1c(CCc2ccc(F)cc2)c(C2CCOCC2)nn1-c1nc2ccccc2[nH]1 [Compound I-114, 1-(1H-1,3-benzodiazol-2-yl)-4-[2-(4-fluorophenyl)ethyl]-3-(oxan-4-yl)-1H-pyrazol-5-ol] | – | – | – | – | 1.77 µM and 1.17 µM | – | 4.4 µM | 5.56 µM | – | – | – | 78.2% | – | 99.5% | – | – | – | – | –
Oc1c(CCc2ccc(F)cc2)c(-c2cncc(Br)c2)nn1-c1nc2ccccc2[nH]1 [Compound I-118, 1-(1H-1,3-benzodiazol-2-yl)-3-(5-bromopyridin-3-yl)-4-[2-(4-fluorophenyl)ethyl]-1H-pyrazol-5-ol] | – | – | – | – | 0.0956 µM | – | – | 0.000216 µM | – | – | – | 101% | – | 81.6% | 17.1 µM | – | – | – | –
Oc1c(CCc2ccc(F)cc2)c(-c2cccnc2)nn1-c1nc2ccccc2[nH]1 [Compound I-121, 1-(1H-1,3-benzodiazol-2-yl)-4-[2-(4-fluorophenyl)ethyl]-3-(pyridin-3-yl)-1H-pyrazol-5-ol] | – | – | – | – | 3.83e-05 µM | 0.474 µM | – | 0.474 µM | 2.58E + 01 minutes | 7.40E- 03 | 29.6% | 29.6% | 97.8% | 97.8% | 2.61 µM | – | – | – | –
Oc1c(CC2CCCCO2)c(-c2ccc(C(F)(F)F)cc2)nn1-c1nc2ccccc2[nH]1 (centres unmarked) [Compound I-122, 1-(1H-1,3-benzodiazol-2-yl)-4-[(oxan-2-yl)methyl]-3-[4-(trifluoromethyl)phenyl]-1H-pyrazol-5-ol] | – | – | – | – | 1.24 µM | 2.25 µM | – | 1.86 µM | 1.02E + 01 minutes | 1.07E- 02 | 95.4% | 95.4% | 75.2% | 75.2% | 11.6 µM | – | – | – | –
COCCc1nn(-c2nc3ccccc3[nH]2)c(O)c1CCc1ccc(F)cc1 [Compound I-125, 1-(1H-1,3-benzodiazol-2-yl)-4-[2-(4-fluorophenyl)ethyl]-3-(2-methoxyethyl)-1H-pyrazol-5-ol] | – | – | – | – | 3.07 µM | 3.13 µM | – | 3.13 µM | 8.87E + 00 minutes | 2.86E- 03 | 21.2% | 21.2% | 100% | 101.1% | – | – | – | – | –
Oc1c(CCc2ccc(F)cc2)c(-c2cnc(C(F)(F)F)nc2)nn1-c1nc2ccccc2[nH]1 [Compound I-126, 1-(1H-1,3-benzodiazol-2-yl)-4-[2-(4-fluorophenyl)ethyl]-3-[2-(trifluoromethyl)pyrimidin-5-yl]-1H-pyrazol-5-ol] | – | – | – | No Interaction | – | – | – | – | – | – | – | -13.9% | – | 107.8% | – | – | – | – | –
Cn1cccc(-c2nn(-c3nc4ccccc4[nH]3)c(O)c2CCc2ccc(F)cc2)c1=O [Compound I-127, 3-[1-(1H-1,3-benzodiazol-2-y1)-4-[2-(4-fluorophenyl)ethyl]-5-hydroxy-1H-pyrazol-3-yl]-1-methyl-1,2-dihydropyridin-2-one] | 2.1 µM | 2.4% | – | – | – | – | – | – | – | – | – | – | – | – | – | 100.0% | – | – | –
Cc1ccn(CCc2c(-c3ccc(C(F)(F)F)cc3)nn(-c3nc4ccccc4[nH]3)c2O)n1 [Compound I-128, 1-(1H-1,3-benzodiazol-2-yl)-4-[2-(3-methyl-1H-pyrazol-1-yl)ethyl]-3-[4-(trifluoromethyl)phenyl]-1H-pyrazol-5-ol] | – | – | – | – | – | – | – | – | 1.20E + 03 minutes | 5.56E- 03 | 33.5% | 33.5% | 97.9% | 97.9% | 4.33 µM | – | 0.00764 µM | 0.000146 µM | 0.00764 µM
CC(C)(C)c1nn(-c2nc3ccccc3[nH]2)c(O)c1CCc1ccc(F)cc1 [Compound I-130, 1-(1H-1,3-benzodiazol-2-yl)-3-tert-butyl-4-[2-(4-fluorophenyl)ethyl]-1H-pyrazol-5-ol] | – | – | – | – | 0.702 µM | 3.8 µM | – | 3.8 µM | 1.15E + 01 minutes | 9.49E- 03 | 43.6% | 43.6% | 98.7% | 98.7% | 13 µM | – | – | – | –
Oc1c(CCN2CCOCC2)c(-c2ccc(C(F)(F)F)cc2)nn1-c1nc2ccccc2[nH]1 [Compound I-131, 1-(1H-1,3-benzodiazol-2-yl)-4-[2-(morpholin-4-yl)ethyl]-3-[4-(trifluoromethyl)phenyl]-1H-pyrazol-5-ol] | – | – | – | – | 1.36 µM | 4.93 µM | – | 4.93 µM | 5.16E + 00 minutes | 1.06E- 02 | 14.2% | 14.2% | 96.4% | 96.4% | 17.8 µM | – | – | – | –
O=C1CCCN1CCc1c(-c2ccc(C(F)(F)F)cc2)nn(-c2nc3ccccc3[nH]2)c1O [Compound I-132, 1-{2-[1-(1H-1,3-benzodiazol-2-yl)-5-hydroxy-3-[4-(trifluoromethyl)phenyl]-1H-pyrazol-4-yl]ethyl}pyrrolidin-2-one] | – | – | – | – | 0.0618 µM | 1.7 µM | – | 1.7 µM | 5.46E + 00 minutes | 5.62E- 03 | 15.7% | 15.7% | 96.5% | 96.5% | 8.01 µM | – | – | – | –
O=S(=O)(c1c(Cl)nc2sccn12)N1CCC(c2nn(-c3nc4ccccc4[nH]3)c(O)c2CCc2ccc(F)cc2)CC1 [Compound I-752, 1-(1H-1,3-benzodiazol-2-yl)-3-[1-({6-chloroimidazo[2,1-b][1,3]thiazol-5-yl}sulfonyl)piperidin-4-yl]-4-[2-(4-fluorophenyl)ethyl]-1H-pyrazol-5-ol] | – | – | – | – | – | – | – | – | – | – | – | 14.7% | – | 97.7% | – | – | – | – | –
